The source of these data is ChEMBL document CHEMBL1201862, “PubChem BioAssay data set” (2004).

Experiment [1] can be described thus: Trypanosoma cruzi growth suppression in host cells – NIH3T3 host cells, beta-gal luminescence, confirmation (AID 2044).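 Note: intracellular parasites grown in NIH/3T3 mouse fibroblasts as host cells; luminescent beta-galactosidase reporter signal from transgenic T. cruzi replicating inside host cells; inhibitors lower the luminescence signal.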 Type of experiment: functional, cell-based.
The nature of experiment [2]: NIH3T3 cell viability loss – ATP luminescence, mouse fibroblasts, counter-screen, dose response (AID 2010).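 Note: cells exposed to compound for about 90 hours before reading.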 The class given is functional, cell-based. (Counterscreens check selectivity or assay interference.)
In experiment [3] the target is T1, DNA repair and recombination protein RAD54-like (Homo sapiens, UniProt Q92698).
T1 sequence (Q92698 whole entry): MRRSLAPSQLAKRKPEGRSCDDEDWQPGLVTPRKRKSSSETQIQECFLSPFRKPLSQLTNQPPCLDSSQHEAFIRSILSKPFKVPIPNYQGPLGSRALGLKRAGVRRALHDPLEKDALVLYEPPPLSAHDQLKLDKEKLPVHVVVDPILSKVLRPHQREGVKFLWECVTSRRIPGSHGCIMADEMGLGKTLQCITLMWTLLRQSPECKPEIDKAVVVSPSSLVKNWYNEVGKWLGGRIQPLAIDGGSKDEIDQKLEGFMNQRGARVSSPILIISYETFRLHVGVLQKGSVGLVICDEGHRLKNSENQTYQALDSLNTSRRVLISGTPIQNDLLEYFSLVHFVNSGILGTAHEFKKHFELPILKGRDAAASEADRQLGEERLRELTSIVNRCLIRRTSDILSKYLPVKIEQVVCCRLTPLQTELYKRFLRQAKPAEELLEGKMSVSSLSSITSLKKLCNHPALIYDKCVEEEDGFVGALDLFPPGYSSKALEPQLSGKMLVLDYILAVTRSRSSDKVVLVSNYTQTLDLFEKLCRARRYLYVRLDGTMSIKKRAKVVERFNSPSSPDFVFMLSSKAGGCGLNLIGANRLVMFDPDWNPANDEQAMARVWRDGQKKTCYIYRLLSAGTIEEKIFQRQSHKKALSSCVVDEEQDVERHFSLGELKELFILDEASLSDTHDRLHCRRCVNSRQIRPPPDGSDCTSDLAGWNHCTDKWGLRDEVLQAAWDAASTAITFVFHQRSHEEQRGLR
In words: RAD54 Holliday junction migration blockers – biochemical, fluorescence, cherry-picked samples, dose series, confirmation (AID 651657). The class given is functional.

Experiment [4] concerns the target DNA repair protein RAD52 homolog (Homo sapiens, UniProt P43351). The class given is functional, biochemical.
A short description of experiment [5]: rise of 2N DNA cells, HeLa – IC50, dose response (AID 1117349). The class given is functional, cell-based.
The nature of experiment [6]: CellTiter-Glo luminescence survival assay, SW480 colon tumor line, concentration-response curve, half-maximal inhibitory concentration (AID 1117338). The class given is functional. For orientation: ATP-based viability assays read luminescence as a measure of living cells.
Experiment [7] in a line: RKO cell viability reduction, dose response, CellTiter-Glo luminescence (AID 1117322). Type of experiment: functional.
Experiment [8] can be described thus: cytotoxicity toward HCT116 cells – cell-based, CellTiter-Glo luminescence, IC50, dose response (AID 1117332). As to conditions: HCT-116. Type of experiment: functional.
Experiment [9] can be described thus: SNU-C1 cell viability reduction, dose response, CellTiter-Glo luminescence (AID 1117323). Type of experiment: functional, cell-based.
Experiment [10] can be described thus: cytotoxicity toward Colo320 cells – cell-based, CellTiter-Glo luminescence, IC50, dose response (AID 1117334). The class given is functional. As to conditions: COLO 320.
Experiment [11] is described as follows: rise of 4N DNA cells, HeLa – IC50, dose response (AID 1117351). The class given is functional, cell-based.
Experiment [12] is described as follows: cytotoxicity toward HT-29 cells – cell-based, CellTiter-Glo luminescence, IC50, dose response (AID 1117330). The class given is functional.
A short description of experiment [13]: Reduced DLD-1 viability, concentration-response, CellTiter-Glo luminescence (AID 1117352). Type of experiment: functional.
Experiment [14] is described as follows: HCT116 cell viability decrease, GSK3B pretreatment – CellTiter-Glo, IC50, dose response (AID 1117339). Type of experiment: functional. As to conditions: HCT-116.
A further experiment addresses Prothrombin (Homo sapiens, UniProt P00734). Nature of the experiment: Thrombin 1536 HTS Dose Response Confirmation. [Related pubchem assays: 1046 (Thrombin 1536 HTS; hits were confirmed in this assay)]. Type of experiment: functional.
The test system of another experiment is H9c2. Nature of the experiment: cells. Type of experiment: functional, cell-based. As to conditions: Rattus norvegicus, H9c2, Myocardium.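 Note: confirmatory concentration-response retest of ultra-high-throughput screening hits for modulation of myocardial damage; cell death induced by hydrogen peroxide oxidative stress; compound pretreatment for 60 min then peroxide exposure for 2 h; potency is for protecting the cells against peroxide damage rather than for killing them.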
Experiment [15] is described as follows: A549 cell cytotoxicity, dose response, cytotoxicity control, plate reader, cherry-pick, antagonist series (AID 743412). The class given is functional, cell-based.
A short description of experiment [16]: toxicity toward HepG2 liver cells – cell-based, plate reader, cherry-pick, antagonist series, cytotoxicity control, dose response (AID 743416). The class given is functional.
A short description of experiment [17]: blockers of bursicon-stimulated LGR2 cAMP reporter – cell-based, HEK293, CRE-luciferase reporter, cherry pick, set 2, dose response (AID 743343).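 Note: transfected cells were stimulated with diluted bursicon conditioned medium after compound addition.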 Type of experiment: functional. For orientation: Reporter assays use an easily measured gene product as a stand-in for the process of interest.
Experiment [18] is described as follows: blockade of melanocortin 4 receptor signaling – cell-based, plate reader, cherry pick, counter-screen for LGR2 antagonist project, dose response (AID 743444).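 Note: transfected HEK 293 cells stimulated with alpha-MSH peptide; potency of inhibitors of the alpha-MSH evoked signal.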 The class given is functional.
Experiment [19] can be described thus: P. falciparum Dd2 growth inhibitors, dose response, SYBR Green, cherry-picked samples (AID 1159567). Type of experiment: functional, cell-based.
Experiment [20] is described as follows: toxicity to human hepatoma HepG2 cells – cell-based, cherry-picked samples, cytotoxicity control, dose response (AID 1159577). Type of experiment: functional.
Experiment [21] can be described thus: activation of miR-122 Renilla sensor silencing – cell-based, Huh7 psiCHECK-miR122, Renilla luciferase, cherry-picked, dose response (AID 651956).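 Note: huh7 hepatoma cells stably carrying a psiCHECK-2 miR-122 sensor plasmid; renilla luciferase signal reporting endogenous miR-122 activity after 48 h compound exposure.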 Type of experiment: functional.
Experiment [22] is described as follows: inhibitors of EBV LMP1 NF-kappaB signaling – cell-based, luciferase reporter, luminescence, dry powder, set 2, dose response (AID 624376). Type of experiment: functional.
Experiment [23] can be described thus: general mammalian cell viability loss – inhibitor set, cherry-pick, set 2, cytotoxicity control for miR-122 modulator project, dose response (AID 720697). The class given is functional, cell-based.
The nature of experiment [24]: cells. The class given is functional, cell-based.
Experiment [25] addresses T2, Trace amine-associated receptor 1 (Homo sapiens, UniProt Q96RJ0).
T2 sequence (Q96RJ0 whole entry): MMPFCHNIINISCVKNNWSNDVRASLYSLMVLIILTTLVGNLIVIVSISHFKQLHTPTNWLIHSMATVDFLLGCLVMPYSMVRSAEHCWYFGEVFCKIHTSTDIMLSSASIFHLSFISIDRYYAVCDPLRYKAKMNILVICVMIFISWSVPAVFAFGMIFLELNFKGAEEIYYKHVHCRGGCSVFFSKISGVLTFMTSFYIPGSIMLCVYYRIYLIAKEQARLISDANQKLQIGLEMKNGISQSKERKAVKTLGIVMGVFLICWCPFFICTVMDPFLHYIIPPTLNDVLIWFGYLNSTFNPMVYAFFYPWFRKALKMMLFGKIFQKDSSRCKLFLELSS
In words: Fluorescence-based cell-based high throughput dose response assay to identify agonists of the human trace amine associated receptor 1 (TAAR1). The class given is functional.

For experiment [26], the target named is T2, Trace amine-associated receptor 1. In words: Counterscreen for agonists of the human trace amine associated receptor 1 (hTAAR1): Fluorescence-based cell-based high throughput dose response assay to identify hTAAR1 agonist that also desensitize TAAR1 receptor response. The class given is functional.
Experiment [27] can be described thus: cells. The class given is functional, cell-based. This is another data set of the same source.

Each structure is given as a SMILES string. The source made the active and inactive calls.

DNA repair protein RAD52 homolog, sequence (P43351 whole entry): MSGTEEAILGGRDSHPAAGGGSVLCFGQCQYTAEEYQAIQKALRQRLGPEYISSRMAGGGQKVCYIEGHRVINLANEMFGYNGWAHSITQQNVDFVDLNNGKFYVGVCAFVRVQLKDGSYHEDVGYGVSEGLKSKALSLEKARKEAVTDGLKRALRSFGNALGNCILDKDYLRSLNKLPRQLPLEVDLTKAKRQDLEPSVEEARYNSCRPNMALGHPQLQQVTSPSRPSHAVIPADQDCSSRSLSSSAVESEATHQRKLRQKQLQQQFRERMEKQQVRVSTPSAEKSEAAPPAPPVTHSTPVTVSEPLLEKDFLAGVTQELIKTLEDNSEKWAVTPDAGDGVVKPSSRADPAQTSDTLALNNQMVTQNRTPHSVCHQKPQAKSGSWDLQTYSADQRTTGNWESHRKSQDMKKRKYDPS

For orientation: EC50 means the concentration that produces a half-maximal response. A word on the AC50: it is the midpoint of the concentration-response curve, whichever way the signal moves. Take `CCCN(CCC)CCCNC(=S)Nc1ccc2nc(N3CCN(C)CC3)cc(C)c2c1`: the EC50 is 2.24 µM (active) in [1] and > 60 µM (not active) in experiment [2]. Besides, the AC50 in [3] is 31.9 µM (active); in experiment [4] it was 5.96 µM (active).
The term IC50 denotes the concentration that gives 50% inhibition. For `CCc1oc2ccccc2c1C(=O)c1cc(I)c(O)c(I)c1` [BENZIODARONE], the IC50 in experiment [5] is > 10 µM (inactive); in experiment [6] it was 0.001 µM (active); in experiment [7] it was 0.003 µM (active); in experiment [8], 0.003 µM (active); in [9], 0.001 µM (active); in experiment [10], 0.003 µM (active). For the same molecule, the IC50 was > 10 µM (inactive) in experiment [11], 0.001 µM (active) in experiment [12], 0.003 µM (active) in [13] and 0.001 µM (active) in experiment [14].
With `COc1cc(C(=O)Nc2nc(-c3cccs3)cs2)cc(OC)c1OC`, the IC50 was 2.64 µM (active) at Prothrombin and > 79 µM (inactive) with H9c2. In addition, the AC50 in experiment [15] is > 52 µM (inactive); in experiment [16], > 52 µM (inactive); in [17], 23.3 µM (active); in [18], 27.7 µM (active).
On to `COc1ccccc1C#Cc1ccc([C@H]2[C@@H](C#N)N(C(=O)C3CCC3)[C@@H]2CO)cc1`, for which the results for the AC50 in [19] and in experiment [20] were 4.98 µM (active) and > 39 µM (inactive), respectively.
As for `COc1cccc(S(=O)(=O)N(C)C[C@@H]2Oc3cc(C4=CCCCC4)ccc3S(=O)(=O)N([C@H](C)CO)C[C@H]2C)c1`, the AC50 in experiment [21] was 30.2 µM (active); in experiment [23], 0.502 µM (active). The same molecule showed an AbsAC35 in experiment [22] of 85.29 µM.
Consider `Cc1ccccc1C(=O)N[C@H](C(=O)N1CCC[C@H]1C(=O)NCCc1ccccc1Cl)c1ccccc1`, for which the IC50 is > 29.9 µM (inactive) in the experiment “cells [24]” and 7.72 µM (active) in experiment [26]. Besides, the half-maximal effective concentration (EC50) in [25] is 6.12 µM (active); in “cells [27]”, > 29.9 µM (inactive).
Take `CCOC(=O)c1ccc(NC(=O)c2ccc(CN3CCOCC3)cc2)cc1`: the AC50 in experiment [23] is 19.3 µM (active).
For the molecule `COc1ccc(-c2cc3nc(NCCN4CCCC4)n(C)c(=O)c3s2)cc1OC`, the AC50 in experiment [3] is 11.6 µM (active); in experiment [4] it was 2.43 µM (active).
